# pIC50: −log10 of the molar value. Read-outs that look alike come from different tables or passages of the source.
# How the values were obtained:
# [1] = tested on: AsPC-1; assay: Anti-proliferative 2D CTG assay, AsPC-1; format: cell-based; conditions: Homo sapiens, ASPC1, 96 h, AsPC-1 cells, 4 days incubation, read-out: AsPC-1 cell IC50
# Experimental: (§1) 1.1 Day 0 Cell Culture and Plating
# (§2) Cells in a logarithmic growth phase were harvested and the cells were counted by using a […]. Cell viability was tested by using a trypan blue exclusion method to ensure that cell viability was above 90%. The cell concentration was adjusted to the desired final density, and 90 μL of cell suspension was added to a 96-well plate, then the cells were incubated overnight at 37° C., 5% CO2 and 95% humidity.
# (§3) 10 μL PBS was added to each well of the TO plate containing cells. The CTG reagent was thawed and the plate was equilibrated to room temperature for 30 minutes. The CTG solution of 50 µL/well was added to each well. The cells were lysed by shaking on an orbital shaker for 5 minutes. The plate was left at room temperature for 20 minutes to stabilize the luminescence signal. The TO fluorescence signal value was read.
# (§4) From the 10 mM stock solution, with a ratio of 1:5, 9-point serial dilutions were performed. The 10× medium containing the compound was transferred into corresponding wells of the 96 wells. The final maximum compound concentration was […] and the final DMSO concentration was 0.1%. The 96-well plate was placed in a 37° C. incubator and incubated for 4 days.
# (§5) 50 μL/well of detection reagent (CTG) was added to the cells, and the signal was read in an Envision machine.
# (§6) The percent inhibition (%) at each compound concentration was calculated from the signal in the HPE and ZPE control wells and the fluorescence signal in the individual compound wells included in each assay plate. […] The compound concentration required for inhibitory concentration at 50% (IC50) was determined using a four-parameter logarithmic dose-response equation by testing the concentration of the compound and the inhibition percentage value. The endpoint value (IC50) of the reference compound was assessed in each experiment as a quality control measure. If the endpoint value is within three times the expected value, the experiment may be considered acceptable.
# [2] = tested on: AGS; assay: Anti-proliferative 2D CTG assay, AGS; format: cell-based; conditions: AGS cells, 4 days incubation, read-out: AGS cell IC50
# Experimental: as §1, §2, §3, §4, §5, §6
# [3] = target: KRAS^G12D/cRAF (Homo sapiens, UniProt P01116, G12D); assay: KRAS G12D/cRAF binding test (Alphalisa); conditions: His-tagged KRAS G12D with GMPPNP, GST-tagged cRAF
# Sequence of KRAS^G12D/cRAF (P01116 1-188 isoform P01116-2 G12D): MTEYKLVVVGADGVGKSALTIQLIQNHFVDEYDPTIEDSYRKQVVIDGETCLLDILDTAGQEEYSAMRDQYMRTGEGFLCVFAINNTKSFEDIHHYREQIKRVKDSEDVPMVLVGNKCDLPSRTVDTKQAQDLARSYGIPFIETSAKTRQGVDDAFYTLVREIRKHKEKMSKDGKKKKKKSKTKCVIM
# Experimental: The compound was dissolved in 100% DMSO at a starting concentration of 5 mM and diluted in DMSO with a 3-fold serial dilution method for a total of 8 concentration points. 1 μL of the compound or DMSO at each concentration point was added into 99 μL of the experimental buffer to obtain 10× stock solution.
# The ratio for each compound concentration was calculated from the signal of the DMSO control group contained in each assay plate and the Alphalisa signal in each compound well. The compound concentration required for inhibitory concentration at 50% (IC50) was determined using a four-parameter logarithmic dose-response equation by testing the concentration of the compound and the value of the ratio. The endpoint value (IC50) of the reference compound was assessed in each experiment as a quality control measure. If the endpoint value is within three times the expected value, the experiment may be considered acceptable.
# [4] = tested on: LS513; assay: Anti-proliferative 2D CTG assay, LS513; format: cell-based; conditions: Homo sapiens, LS-513, 96 h, LS513 cells, 4 days incubation, read-out: LS513 cell IC50
# Experimental: as §1, §2, §3, §4, §5, §6
# [5] = tested on: HPAC; assay: Anti-proliferative 2D CTG assay, HPAC; format: cell-based; conditions: Homo sapiens, 96 h, HPAC cells, 4 days incubation, read-out: HPAC cell IC50
# Experimental: as §1, §2, §3, §4, §5, §6
# [6] = Pharmacokinetic experiment in mice (single PO or IV administration); conditions: male, ICR, mouse, plasma
# Source text: The purpose of this trial is to study the pharmacokinetic behavior of some compounds of the present invention, and the administration method is: single oral administration (PO) or intravenous administration (IV) to ICR mice.
# ICR mice male N=9 original source: Shanghai Sippr-Bk Lab Animal Co., Ltd.
# The compounds were weighed and dissolved in the corresponding solution (0.5% CMC+1% tween water solution or 10% PG+10% Solutol®+80% pH3 citrate buffer). The mixture was then shaken well and sonicated to prepare a 1 mg/mL stock solution. Nine mice were orally administered at a dose of 10 mg/kg or intravenously administered at a dose of 2 mg/kg after an overnight fast.
# About 90 μL of blood was collected via the submandibular vein per time point, heparin sodium anticoagulant was added, the sample was placed on ice after collection, and plasma was centrifuged within 1 hour (centrifugation conditions: 8,000 rpm, 6 minutes, 2-8° C.). The blood collection timepoints were 0, 0.25, 0.5, 1, 2, 4, 6, 8 and 24 h. The samples were stored in a −20° C. refrigerator.
# The plasma sample was 40 μL, 160 μL of ice-cold acetonitrile containing internal standard was added, vortexed for 3 minutes, and centrifuged at 11,000 rpm for 5 minutes. 100 μL of the supernatant was taken and added to 100 μL of water, 5 μL of the sample was taken and injected into LC/MS/MS for analysis.
Compound,pIC50 [1],"pIC50 ([2]; Homo sapiens, AGS, 96 h)",pIC50 [3],further results
"C#Cc1c(F)ccc2cc(O)cc(-c3ncc4c(N5C[C@@H]6CC[C@](CC)(C5)N6)nc(OC[C@@]56CCCN5CC(=C)C6)nc4c3F)c12 [Example 20, 4-(4-((1R,5S)-1-ethyl-3,8-diazabicyclo[3.2.1]octan-3-yl)-8-fluoro-2-(((S)-2-methylenetetrahydro-1H-pyrrolizin-7a(5H)-yl)methoxy)pyrido[4,3-d]pyrimidin-7-yl)-5-ethynyl-6-fluoronaphthalen-2-ol]",7.76,8.51,8.52,
"C#Cc1c(F)ccc2cc(O)cc(-c3ncc4c(N5C[C@@H]6CC[C@](COC)(C5)N6)nc(OC[C@@]56CCCN5CC(=C)C6)nc4c3F)c12 [Example 22, 5-ethynyl-6-fluoro-4-(8-fluoro-4-((1R,5S)-1-(methoxymethyl)-3,8-diazabicyclo[3.2.1]octan-3-yl)-2-(((S)-2-methylenetetrahydro-1H-pyrrolizin-7a(5H)-yl)methoxy)pyrido[4,3-d]pyrimidin-7-yl)naphthalen-2-ol]",7.84,7.66,8.54,
"C#Cc1c(F)ccc2cc(O)cc(-c3ncc4c(N5C[C@@H]6CC[C@](C7CC7)(C5)N6)nc(OC[C@@]56CCCN5CC(=C)C6)nc4c3F)c12 [Example 29, 4-(4-((1S,5S)-1-cyclopropyl-3,8-diazabicyclo[3.2.1]octan-3-yl)-8-fluoro-2-(((S)-2-methylenetetrahydro-1H-pyrrolizin-7a(5H)-yl)methoxy)pyrido[4,3-d]pyrimidin-7-yl)-5-ethynyl-6-fluoronaphthalen-2-ol]",6.99,7.68,7.60,
"C#Cc1c(F)ccc2cc(O)cc(-c3ncc4c(N5C[C@@H]6CC[C@](C7CC7)(C5)N6)nc(OC[C@@]56CCCN5CC(=C(F)F)C6)nc4c3F)c12 [Example 45, 4-(4-((1S,5S)-1-cyclopropyl-3,8-diazabicyclo[3.2.1]octan-3-yl)-2-(((S)-2-(difluoromethylene)tetrahydro-1H-pyrrolizin-7a (5H)-yl)methoxy)-8-fluoropyrido [4,3-d]pyrimidin-7-yl)-5-ethynyl-6-fluoronaphthalen-2-ol]",,,7.28,pIC50 [4]: 6.79; pIC50 [5]: 6.88
"C#Cc1c(F)ccc2cc(O)cc(-c3ncc4c(N5C[C@@H]6CC[C@](CC)(C5)N6)nc(OC[C@@]56CCCN5C/C(=C\F)C6)nc4c3F)c12 [Example 55, 4-(4-((1R,5S)-1-ethyl-3,8-diazabicyclo[3.2.1]octan-3-yl)-8-fluoro-2-(((Z)-2-(fluoromethylene)tetrahydro-1H-pyrrolizin-7a (5H)-yl)methoxy)pyrido[4,3-d]pyrimidin-7-yl)-5-ethynyl-6-fl uoronaphthalen-2-ol]",7.79,,8.52,pIC50 [2]: 8.89
"C#Cc1c(F)ccc2cc(O)cc(-c3ncc4c(N5C[C@@H]6CC[C@](COC)(C5)N6)nc(OC[C@@]56CCCN5C/C(=C\F)C6)nc4c3F)c12 [Example 58, 5-ethynyl-6-fluoro-4-(8-fluoro-2-(((Z)-2-(fluoromethylene)tetrahydro-1H-pyrrolizin-7a(5H)-yl)methoxy)-4-((1R,5S)-1-(methoxymethyl)-3,8-diazabicyclo [3.2.1]octan-3-yl)pyrido[4,3-d]pyrimidin-7-yl)naphthalen-2-ol]",7.66,8.77,8.22,
"[2H]C([2H])([2H])OC[C@@]12CC[C@@H](CN(c3nc(OC[C@@]45CCCN4C/C(=C\F)C5)nc4c(F)c(-c5cc(O)cc6ccc(F)c(C#C)c56)ncc34)C1)N2 [Example 61, 5-ethynyl-6-fluoro-4-(8-fluoro-2-(((Z)-2-(fluoromethylene)tetrahydro-1H-pyrrolizin-7a(5H)-yl)methoxy)-4-((1R,5S)-1-((methoxy-d3)methyl)-3,8-diazabicyclo[3.2.1]octan-3-yl)pyrido[4,3-d]pyrimidin-7-yl)naphthalen-2-ol]",7.42,,8.60,pIC50 [2]: 8.47
"C#Cc1c(F)ccc2cc(O)cc(-c3ncc4c(N5C[C@@H]6CC[C@](CC)(C5)N6)nc(OC[C@@]56CCCN5C/C(=C/F)C6)nc4c3F)c12 [Example 80, 4-(4-((1R,5S)-1-ethyl-3,8-diazabicyclo[3.2.1]octan-3-yl)-8-fluoro-2-(((S,E)-2-(fluoromethylene)tetrahydro-1H-pyrrolizin-7a (5H)-yl)methoxy)pyrido[4,3-d]pyrimidin-7-yl)-5-ethynyl-6-fluoronaphthalen-2-ol]",7.40,8.24,8.21,
"[2H]C([2H])([2H])OC[C@@]12CC[C@@H](CN(c3nc(OC[C@@]45CCCN4C/C(=C/F)C5)nc4c(F)c(-c5cc(O)cc6ccc(F)c(C#C)c56)ncc34)C1)N2 [Example 84, 5-ethynyl-6-fluoro-4-(8-fluoro-2-(((S,E)-2-(fluoromethylene)tetrahydro-1H-pyrrolizin-7a (5H)-yl)methoxy)-4-((1R,5S)-1-((methoxy-d3)methyl)-3,8-diazabicyclo[3.2.1]octan-3-yl)pyrido[4,3-d]pyrimidin-7-yl) naphthalen-2-ol]",7.23,7.94,8.41,
"C#Cc1c(F)ccc2cc(O)cc(-c3ncc4c(N5C[C@@H]6CC[C@](C7CC7)(C5)N6)nc(OC[C@@]56CCCN5C/C(=C/F)C6)nc4c3F)c12 [Example 90, 4-(4-((1S,5S)-1-cyclopropyl-3,8-diazabicyclo[3.2.1]octan-3-yl)-8-fluoro-2-(((S,E)-2-(fluoromethylene)tetrahydro-1H-pyrrolizin-7a(5H)-yl)methoxy)pyrido[4,3-d]pyrimidin-7-yl)-5-ethynyl-6-fluoronaphthalen-2-ol]",6.99,7.55,7.39,
"[2H]C([2H])([2H])[C@@]12CC[C@@H](CN(c3nc(OC[C@@]45CCCN4C/C(=C\F)C5)nc4c(F)c(-c5cc(O)cc6ccc(F)c(C#C)c56)c(F)cc34)C1)N2 [Example 229, 4-(6,8-difluoro-2-(((S,Z)-2-(fluoro-methylene)tetrahydro-1H-pyrrolizin-7a(5H)-yl)methoxy)-4-((1R,5S)-1-(methyl-d3)-3,8-diazabicyclo[3.2.1]octan-3-yl)quinazolin-7-yl)-5-ethynyl-6-fluoro-naphthalen-2-ol]",,,7.69,pIC50 [4]: 7.48; pIC50 [5]: 7.06
"[2H]C([2H])([2H])[C@@]12CC[C@@H](CN(c3nc(OC[C@@]45CCCN4C/C(=C\F)C5)nc4c(F)c(-c5cc(N)cc6ccc(F)c(C#C)c56)ncc34)C1)N2 [Example 355, 5-ethynyl-6-fluoro-4-(8-fluoro-2-(((S,Z)-2-(fluoromethylene)tetrahydro-1H-pyrrolizin-7a(5H)-yl)methoxy)-4-((1R,5S)-1-(methyl-d3)-3,8-diazabicyclo[3.2.1]octan-3-yl)pyrido[4,3-d]pyrimidin-7-yl)naphthalen-2-amine]",7.18,7.75,7.96,"AUC ([6]; iv, 2 mg/kg): 223 ng·h/mL; Cmax ([6]; iv, 2 mg/kg): 68.9 ng/mL; half-life ([6]; iv, 2 mg/kg): 7.2 h; AUC ([6]; po, 10 mg/kg): 466 ng·h/mL; Cmax ([6]; po, 10 mg/kg): 120 ng/mL; bioavailability ([6]; po, 10 mg/kg): 41.7%; half-life ([6]; po, 10 mg/kg): 9.1 h"
